Consider four molecules from patent US9540392B2, “Thienopyrimidines” (BAYER PHARMA AKTIENGESELLSCHAFT, priority 2012, dated 2017).

The target in experiment [1] is T1, human full-length MKNK1 (Homo sapiens, UniProt Q9BUB5, T385D).
T1 construct: GST (N); purchased Carna Biosciences 02-145; host or cells: insect cells (baculovirus expression system)
Briefly: MKNK1 kinase assay (TR-FRET). Format: biochemical. The following applies: 10 μM ATP. The text has this: MKNK1-inhibitory activity of compounds of the present invention was quantified employing the MKNK1 TR-FRET assay as described in the following paragraphs.
A recombinant fusion protein of Glutathione-S-Transferase (GST, N-terminally) and human full-length MKNK1 (amino acids 1-424 and T344D of accession number BAA 19885.1), expressed in insect cells using baculovirus expression system and purified via glutathione sepharose affinity chromatography, was purchased from Carna Biosciences (product no 02-145) and used as enzyme. As substrate for the kinase reaction the biotinylated peptide biotin-Ahx-IKKRKLTRRKSLKG (C-terminus in amide form) was used which can be purchased e.g. form the company Biosyntan (Berlin-Buch, Germany).
For the assay 50 nL of a 100 fold concentrated solution of the test compound in DMSO was pipetted into a black low volume 384 well microtiter plate (Greiner Bio-One, Frickenhausen, Germany), 2 μL of a solution of MKNK1 in aqueous assay buffer [50 mM HEPES pH 7.5, 5 mM MgCl2, 1.0 mM dithiothreitol, 0.005% (v/v) Nonidet-P40 (Sigma)] was added and the mixture was incubated for 15 min at 22° C. to allow pre-binding of the test compounds to the enzyme before the start of the kinase reaction. Then the kinase reaction was started by the addition of 3 μL of a solution of adenosine-tri-phosphate (ATP, 16.7 μM=>final conc. in the 5 μL assay volume is 10 μM) and substrate (0.1 μM=>final conc. in the 5 μL assay volume is 0.06 μM) in assay buffer and the resulting mixture was incubated for a reaction time of 45 min at 22° C. The concentration of MKNK1 was adjusted depending of the activity of the enzyme lot and was chosen appropriate to have the assay in the linear range, typical concentrations were in the range of 0.05 μg/mL. The reaction was stopped by the addition of 5 μL of a solution of TR-FRET detection reagents (5 nM streptavidine-XL665 [Cisbio Bioassays, Codolet, France] and 1 nM anti-ribosomal protein […] (pSer236)-antibody from Invitrogen [#44921G] and 1 nM LANCE EU-W1024 Labeled ProteinG [Perkin-Elmer, product no. AD0071]) in an aqueous EDTA-solution (100 mM EDTA, 0.1% (w/v) bovine serum albumin in 50 mM HEPES pH 7.5).
The resulting mixture was incubated for 1 h at 22° C. to allow the formation of complex between the phosphorylated biotinylated peptide and the detection reagents. Subsequently the amount of phosphorylated substrate was evaluated by measurement of the resonance energy transfer from the Eu-chelate to the streptavidine-XL. Therefore, the fluorescence emissions at 620 nm and 665 nm after excitation at 350 nm were measured in a TR-FRET reader, e.g. a Rubystar (BMG Labtechnologies, Offenburg, Germany) or a Viewlux (Perkin-Elmer). […]
(In general: TR-FRET usually uses a lanthanide donor and a delayed reading to cut background.)

Experiment [2] concerns the target T1, human full-length MKNK1. Kind of experiment: MKNK1 kinase high ATP assay (TR-FRET). Format: biochemical. The following applies: 2 mM ATP, after preincubation with MKNK1; read-out: MKNK1 IC50 (MKNK1 high ATP). The method, boiled down: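 Compound was preincubated 15 min at 22° C. with MKNK1 in 50 mM HEPES pH 7.5, 5 mM MgCl2, 1.0 mM DTT, then the reaction ran 30 min at 22° C. with 2 mM ATP and 0.06 μM biotinylated peptide (final).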

Experiment [3] deals with eIF4E Ser209 phosphorylation in A549 cells. Kind of experiment: AlphaScreen SureFire eIF4E Ser209 phosphorylation assay in A549 cells with 20% FCS stimulation. Format: cell-based. The following applies: Homo sapiens, read-out: pEIF4e (IC50 of the EIF4e phosphorylation). An excerpt:
The AlphaScreen SureFire eIF4E Ser209 phoshorylation assay is used to measure the phosphorylation of endogenous eIF4E in cellular lysates. The AlphaScreen SureFire technology allows the detection of phosphorylated proteins in cellular lysates. In this assay, sandwich antibody complexes, which are only formed in the presence of the analyte (p-eIF4E Ser209), are captured by AlphaScreen donor and acceptor beads, bringing them into close proximity. The excitation of the donor bead provokes the release of singlet oxygen molecules that triggers a cascade of energy transfer in the Acceptor beads, resulting in the emission of light at 520-620 nm.
Surefire EIF4e Alphascreen in A549 cells with 20% FCS stimulation
For the assay the AlphaScreen SureFire p-eIF4E Ser209 10K Assay Kit and the AlphaScreen ProteinA Kit (for 10K assay points) both from Perkin Elmer were used. On day one 50.000 A549 cells were plated in a 96-well plate in 100 μL per well in growth medium (DMEM/Hams' F12 with stable Glutamin, 10% FCS) and incubated at 37° C. After attachment of the cells, medium was changed to starving medium (DMEM, 0.1% FCS, without Glucose, with Glutamin, supplemented with 5 g/L Maltose). On day two, test compounds were serially diluted in 50 μL starving medium with a final DMSO concentration of 1% and were added to A549 cells in test plates at a final concentration range from as high 10 μM to as low 10 nM depending on the activities of the tested compounds. Treated cells were incubated at 37° C. for 2 h. 37 ul FCS was added to the wells (=final FCS concentration 20%) for 20 min. Then medium was removed and cells were lysed by adding 50 μL lysis buffer. Plates were then agitated on a plate shaker for 10 min. After 10 min lysis time, 4 μL of the lysate is transferred to a 384 well plate (Proxiplate from Perkin Elmer) and 5 μL Reaction Buffer plus Activation Buffer mix containing AlphaScreen Acceptor beads was added. Plates were sealed with TopSeal-A adhesive film, gently agitated on a plate shaker for 2 hours at room temperature. Afterwards 2 μL Dilution buffer with AlphaScreen Donor beads were added under subdued light and plates were sealed again with TopSeal-A adhesive film and covered with foil. Incubation takes place for further 2 h gently agitation at room temperature. Plates were then measured in an EnVision reader (Perkin Elmer) with the AlphaScreen program. Each data point (compound dilution) was measured as triplicate.
The IC50 values were determined by means of a 4-parameter fit using the company's own software.
(In Alpha technology, singlet oxygen from a donor bead excites a nearby acceptor bead.)

As a reminder, the IC50 is the concentration needed to halve the response being measured.

T1 sequence (Q9BUB5 1-424 isoform Q9BUB5-2 T344D): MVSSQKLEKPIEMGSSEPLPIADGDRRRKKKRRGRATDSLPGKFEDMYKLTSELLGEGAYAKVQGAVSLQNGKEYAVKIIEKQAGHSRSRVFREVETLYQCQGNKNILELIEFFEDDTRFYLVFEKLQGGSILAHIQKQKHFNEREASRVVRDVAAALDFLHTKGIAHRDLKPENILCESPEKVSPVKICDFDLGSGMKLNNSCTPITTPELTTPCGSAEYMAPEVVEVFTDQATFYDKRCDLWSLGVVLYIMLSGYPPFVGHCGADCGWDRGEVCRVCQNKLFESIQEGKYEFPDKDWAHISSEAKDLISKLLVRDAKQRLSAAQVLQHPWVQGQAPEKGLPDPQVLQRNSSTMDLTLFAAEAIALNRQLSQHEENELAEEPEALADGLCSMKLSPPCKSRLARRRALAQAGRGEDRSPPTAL

Turning to `CCOC(=O)C1CCc2c(sc3ncnc(Nc4ccc5[nH]ncc5c4)c23)C1` (stereo not drawn) [Example 1, Ethyl 4-(1H-indazol-5-ylamino)-5,6,7,8-tetrahydro[1]benzothieno[2,3-d]pyrimidine-7-carboxylate], the IC50 in experiment [1] was found to be 5 nM; in experiment [2], 16 nM.
The like results for `CS(=O)(=O)CCCNC(=O)C1CCc2c(sc3ncnc(Nc4ccc5[nH]ncc5c4)c23)C1` (stereo not drawn) [Example 4, 4-(1H-Indazol-5-ylamino)-N-[3-(methylsulfonyl)propyl]-5,6,7,8-tetrahydro[1]benzothieno[2,3-d]pyrimidine-7-carboxamide] were, in that order, 8 nM and 9 nM.
Regarding `CCOC(=O)C1CCc2c(sc3ncnc(Nc4cc5cn[nH]c5cc4OC)c23)C1` (stereo not drawn) [Example 56, Ethyl 4-[(6-methoxy-1H-indazol-5-yl)amino]-5,6,7,8-tetrahydro[1]benzothieno[2,3-d]pyrimidine-7-carboxylate], the IC50 in experiment [3] was determined as 165 nM; in experiment [1] it was 2 nM; in experiment [2], 2 nM.
Regarding `O=C(O)C1CCc2c(sc3ncnc(Nc4ccc5[nH]ncc5c4)c23)C1` (stereo not drawn) [Example 2, 4-(1H-Indazol-5-ylamino)-5,6,7,8-tetrahydro[1]benzothieno[2,3-d]pyrimidine-7-carboxylic acid], the IC50 in experiment [1] worked out at 8 nM; in experiment [2], 26 nM.
